Data reported in article PMC12349723, “Computationally accelerated identification of P-glycoprotein inhibitors” (PLOS One, 2025).

tested on: not listed separately; assay: SWISS-ADME computational analysis of chemical properties; details: predicted aqueous solubility compared to that observed in the laboratory
Source text: (§1) Identifying P-gp inhibitors that are not transport substrates remains inherently challenging. To that end, computational tools such as the SWISS-ADME server attempt to use a molecule’s unique chemical and structural characteristics to predict whether it is likely to be a P-gp transport substrate. Our LC-MS/MS assays allowed us to retroactively test the validity of predictions from SWISS-ADME. […] Alternative identifiers for the molecules identified in this study are shown in S7 Table.
(§2) S1 Table. Known P-gp Inhibitors and Predicted Chemical Properties. A non-exhaustive list of known P-gp inhibitors and their selected chemical properties ^[64, 65]. Clinical trial outcomes were adapted from ^[10, 11]. Compounds were evaluated using the SWISS-ADME server ^[54]. […] “Predicted P-gp Substrate” - predicted by SWISS-ADME to be a transport substrate of P-gp. “Known P-gp Substrate” – In addition to being P-gp inhibitors, these molecules are: known transport substrates of P-gp, known non-transport substrates of P-gp, unknown whether it is a transport substrate of P-gp ^[66-68]. If the molecule is designated in a specific generation of P-gp inhibitors - First Generation P-gp inhibitors, Second generation P-gp inhibitors, Third generation P-gp inhibitors.

Structure (SMILES) | Correct Water Solubility Prediction?
O=C(c1cc2ccccc2[nH]1)N1CCN(S(=O)(=O)c2cccc3nonc23)CC1 [Compound 66, O=C(N1CCN(CC1)S(=O)(=O)c1cccc2nonc12)c1cc2ccccc2[nH]1] | Yes

tested on: P-gp; assay: SWISS-ADME prediction of P-gp transport substrate; details: prediction compared to the LC-MS/MS intracellular accumulation data
Source text: as §1, §2

Structure (SMILES) | Correct P-gp Substrate Prediction?
O=C(c1cc2ccccc2[nH]1)N1CCN(S(=O)(=O)c2cccc3nonc23)CC1 [Compound 66, O=C(N1CCN(CC1)S(=O)(=O)c1cccc2nonc12)c1cc2ccccc2[nH]1] | No

target: T1, P-gp (Homo sapiens, UniProt P08183); assay: Top Hit classification from combined in vitro criteria; details: reverse MDR, do not increase PTX toxicity in chemo-sensitive cancer cells, non-toxic to noncancerous cells, not P-gp substrates
T1 construct: The MDR, P-gp overexpressing DU145-TXR cells were maintained under positive selection pressure; endogenous in cells; host or cells: DU145-TXR (paclitaxel-resistant sub-line of DU145 human prostate cancer cells)
T1 sequence (P08183 whole entry): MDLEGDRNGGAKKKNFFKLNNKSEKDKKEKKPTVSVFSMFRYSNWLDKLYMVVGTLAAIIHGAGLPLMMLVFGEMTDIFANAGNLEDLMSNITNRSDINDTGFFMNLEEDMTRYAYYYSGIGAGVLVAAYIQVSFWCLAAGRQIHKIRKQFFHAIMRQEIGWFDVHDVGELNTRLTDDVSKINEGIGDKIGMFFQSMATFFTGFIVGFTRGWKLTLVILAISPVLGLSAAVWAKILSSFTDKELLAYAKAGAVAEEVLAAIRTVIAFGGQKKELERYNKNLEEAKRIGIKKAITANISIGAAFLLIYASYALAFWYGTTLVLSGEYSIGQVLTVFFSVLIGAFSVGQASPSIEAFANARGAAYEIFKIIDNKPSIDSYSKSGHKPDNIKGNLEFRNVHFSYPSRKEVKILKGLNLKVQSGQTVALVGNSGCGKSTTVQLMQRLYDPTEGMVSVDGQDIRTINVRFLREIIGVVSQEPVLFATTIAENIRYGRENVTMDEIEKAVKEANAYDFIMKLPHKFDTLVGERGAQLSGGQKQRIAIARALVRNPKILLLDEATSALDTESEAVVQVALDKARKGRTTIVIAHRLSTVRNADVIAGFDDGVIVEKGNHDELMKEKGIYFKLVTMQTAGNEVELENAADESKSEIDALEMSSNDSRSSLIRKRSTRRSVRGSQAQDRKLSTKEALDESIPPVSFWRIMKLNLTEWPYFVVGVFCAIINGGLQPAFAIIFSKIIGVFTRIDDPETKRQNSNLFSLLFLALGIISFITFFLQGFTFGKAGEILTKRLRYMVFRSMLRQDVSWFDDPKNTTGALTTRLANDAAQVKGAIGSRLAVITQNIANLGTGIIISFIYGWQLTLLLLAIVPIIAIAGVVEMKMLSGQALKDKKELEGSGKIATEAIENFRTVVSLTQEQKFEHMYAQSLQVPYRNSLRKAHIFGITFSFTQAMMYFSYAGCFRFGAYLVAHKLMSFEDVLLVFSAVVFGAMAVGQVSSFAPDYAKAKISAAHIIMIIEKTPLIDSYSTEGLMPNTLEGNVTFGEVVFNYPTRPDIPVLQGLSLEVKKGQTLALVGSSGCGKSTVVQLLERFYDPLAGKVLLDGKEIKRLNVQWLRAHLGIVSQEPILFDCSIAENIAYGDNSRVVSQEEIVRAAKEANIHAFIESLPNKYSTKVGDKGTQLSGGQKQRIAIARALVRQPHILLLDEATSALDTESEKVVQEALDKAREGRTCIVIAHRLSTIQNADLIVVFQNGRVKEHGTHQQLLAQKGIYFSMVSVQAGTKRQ

Structure (SMILES) | Top Hit
O=C(c1cc2ccccc2[nH]1)N1CCN(S(=O)(=O)c2cccc3nonc23)CC1 [Compound 66, O=C(N1CCN(CC1)S(=O)(=O)c1cccc2nonc12)c1cc2ccccc2[nH]1] | No

tested on: DU145-TXR cells; assay: MTT viability assay, reversal of MDR (re-sensitization to paclitaxel) in P-gp overexpressing DU145-TXR cells; format: cell-based, human; details: 15 µM compound + 500 nM PTX (Paclitaxel, Taxol); DU145-TXR; mean of 8 samples
Method: The chemotherapeutic sensitive DU145 human prostate cancer cells and the multidrug resistant sub-line, DU145-TXR, were generous gifts from Dr. Evan Keller (University of Michigan, Ann Arbor, MI). The MDR, P-gp overexpressing DU145-TXR cells were maintained under positive selection pressure by supplementing complete medium with 10 nM paclitaxel (Acros Organics, NJ). In addition to the aforementioned cell lines, the chemotherapeutic sensitive A2780 ovarian cancer cells (93112519, Sigma) and the multidrug resistant A2780-ADR (93112520, Sigma) were maintained in complete RPMI media consisting of RPMI-1640 with L-glutamine, 10% fetal bovine serum (FBS; Corning), 100 U/mL penicillin and 100 μg/mL streptomycin in a humidified incubator at 37 °C and 5% CO2. The MDR, P-gp overexpressing A2780-ADR cell line was maintained under positive selection pressure by supplementing complete medium with 100 nM doxorubicin (Fisher Scientific, NJ). The non-cancerous HFL1 (human lung fibroblast) cell line cell line was a generous gift from Dr. Robert Harrod (Southern Methodist University, Dallas, TX) and was maintained in complete F12K media consisting of F12K with 10% fetal bovine serum, 100 U/mL penicillin, and 100 µg/mL streptomycin (Gibco). Flasks and 96 well plates that were used with the non-cancerous line HFL1 were pre-treated with 0.1 mg/ml Collagen Type 1 (Gibco) and rinsed with PBS (Fisher).
Culture of the DU145, DU145-TXR, and HFL1 cell lines was performed as described in [8]. Culture of the A2780 and A2780-ADR cell lines was performed as described in [9]. MTT assays were performed as described in [8] with minor modifications. LC-MS/MS accumulation assays were performed as described in {Nanayakkara, 2018 #173} [9] with some modifications. […] The inhibitor concentration was lowered to 15 µM here, as the goal of the study was to identify compounds that were effective in reversing MDR at low concentrations, and to determine if the expanded virtual-assisted methods improved on our first-draft attempt. Compounds 56–98 were pre-screened using Resazurin cell viability assays: cells were incubated with 15 µM compound with or without 500 nM PTX for 48 hours, after which cell survival was assessed similar to [39]. Data represent the mean of two separate experiments, with n = 3 samples per experiment (n = 6 total) (S4 Table). The top performing compounds from this initial screen were re-tested with MTT viability assays against DU145-TXR cells, as described below.
MTT assays measure the reduction of yellow, water soluble 3-(4,5-dimethylthiazol-2-yl)-2,5-diphenyltetrazolium bromide (MTT) to blue, insoluble formazan crystals by cellular reductase processes in living cells. Cells were trypsinized from monolayers and seeded in complete medium in 96 well plates. Cancerous cell lines (DU145, DU145-TXR, A2780, A2780-ADR) were seeded at 3,000 cells per well in complete RPMI medium. The non-cancerous HFL1 line was seeded at 4,000 cells per well in complete F12K medium, in collagen-treated plates (Collagen Type 1, Gibco). Cells were incubated with experimental compounds for 48 hours at 37 °C and 5% CO2 in a humidified incubator. At 48 hours, MTT was added (20 µL/well of 5 mg/mL MTT in PBS) to each well. After incubation for 4 hours, the media was removed, and the formazan crystals were dissolved in 100 µL DMSO per well. Plates containing the semi-adherent A2780 or A2780-ADR lines were spun at 1400 rpm for 3 minutes prior to aspiration of media, and the addition of DMSO. Plates were shaken for 10 minutes at 500 rpm on an Orbital shaker (LabDoctor from MidSci, St Louis, MO). The absorbance was measured at 570 nm using a Bio-Tek Cytation 5 (Bio-Tek, Winooski, VT). The measured absorbance value was correlated with the number of metabolically active cells in that well, corrected for absorbance of media. […]

Structure (SMILES) | % Survival, mean [%]
O=C(c1cc2ccccc2[nH]1)N1CCN(S(=O)(=O)c2cccc3nonc23)CC1 [Compound 66, O=C(N1CCN(CC1)S(=O)(=O)c1cccc2nonc12)c1cc2ccccc2[nH]1] | 81.6

same assay, conditions: 15 µM compound + 500 nM PTX (Paclitaxel, Taxol); DU145-TXR; trial 1, sample 1

Structure (SMILES) | % Survival [%]
O=C(c1cc2ccccc2[nH]1)N1CCN(S(=O)(=O)c2cccc3nonc23)CC1 [Compound 66, O=C(N1CCN(CC1)S(=O)(=O)c1cccc2nonc12)c1cc2ccccc2[nH]1] | 89

same assay, conditions: 15 µM compound + 500 nM PTX (Paclitaxel, Taxol); DU145-TXR; trial 1, sample 2

Structure (SMILES) | % Survival [%]
O=C(c1cc2ccccc2[nH]1)N1CCN(S(=O)(=O)c2cccc3nonc23)CC1 [Compound 66, O=C(N1CCN(CC1)S(=O)(=O)c1cccc2nonc12)c1cc2ccccc2[nH]1] | 94

same assay, conditions: 15 µM compound + 500 nM PTX (Paclitaxel, Taxol); DU145-TXR; trial 1, sample 3

Structure (SMILES) | % Survival [%]
O=C(c1cc2ccccc2[nH]1)N1CCN(S(=O)(=O)c2cccc3nonc23)CC1 [Compound 66, O=C(N1CCN(CC1)S(=O)(=O)c1cccc2nonc12)c1cc2ccccc2[nH]1] | 92

same assay, conditions: 15 µM compound + 500 nM PTX (Paclitaxel, Taxol); DU145-TXR; trial 1, sample 4

Structure (SMILES) | % Survival [%]
O=C(c1cc2ccccc2[nH]1)N1CCN(S(=O)(=O)c2cccc3nonc23)CC1 [Compound 66, O=C(N1CCN(CC1)S(=O)(=O)c1cccc2nonc12)c1cc2ccccc2[nH]1] | 90

same assay, conditions: 15 µM compound + 500 nM PTX (Paclitaxel, Taxol); DU145-TXR; trial 2, sample 1

Structure (SMILES) | % Survival [%]
O=C(c1cc2ccccc2[nH]1)N1CCN(S(=O)(=O)c2cccc3nonc23)CC1 [Compound 66, O=C(N1CCN(CC1)S(=O)(=O)c1cccc2nonc12)c1cc2ccccc2[nH]1] | 73

same assay, conditions: 15 µM compound + 500 nM PTX (Paclitaxel, Taxol); DU145-TXR; trial 2, sample 2

Structure (SMILES) | % Survival [%]
O=C(c1cc2ccccc2[nH]1)N1CCN(S(=O)(=O)c2cccc3nonc23)CC1 [Compound 66, O=C(N1CCN(CC1)S(=O)(=O)c1cccc2nonc12)c1cc2ccccc2[nH]1] | 76

same assay, conditions: 15 µM compound + 500 nM PTX (Paclitaxel, Taxol); DU145-TXR; trial 2, sample 3

Structure (SMILES) | % Survival [%]
O=C(c1cc2ccccc2[nH]1)N1CCN(S(=O)(=O)c2cccc3nonc23)CC1 [Compound 66, O=C(N1CCN(CC1)S(=O)(=O)c1cccc2nonc12)c1cc2ccccc2[nH]1] | 68

same assay, conditions: 15 µM compound + 500 nM PTX (Paclitaxel, Taxol); DU145-TXR; trial 2, sample 4

Structure (SMILES) | % Survival [%]
O=C(c1cc2ccccc2[nH]1)N1CCN(S(=O)(=O)c2cccc3nonc23)CC1 [Compound 66, O=C(N1CCN(CC1)S(=O)(=O)c1cccc2nonc12)c1cc2ccccc2[nH]1] | 70

same assay, conditions: Homo sapiens, 15 µM Compound Alone; DU145-TXR; mean of 8 samples; read-out: % Survival, mean

Structure (SMILES) | viability at 15 µM [%]
O=C(c1cc2ccccc2[nH]1)N1CCN(S(=O)(=O)c2cccc3nonc23)CC1 [Compound 66, O=C(N1CCN(CC1)S(=O)(=O)c1cccc2nonc12)c1cc2ccccc2[nH]1] | 84.2

same assay, conditions: Homo sapiens, 15 µM Compound Alone; DU145-TXR; trial 1, sample 1; read-out: % Survival

Structure (SMILES) | viability at 15 µM [%]
O=C(c1cc2ccccc2[nH]1)N1CCN(S(=O)(=O)c2cccc3nonc23)CC1 [Compound 66, O=C(N1CCN(CC1)S(=O)(=O)c1cccc2nonc12)c1cc2ccccc2[nH]1] | 87

same assay, conditions: Homo sapiens, 15 µM Compound Alone; DU145-TXR; trial 1, sample 2; read-out: % Survival

Structure (SMILES) | viability at 15 µM [%]
O=C(c1cc2ccccc2[nH]1)N1CCN(S(=O)(=O)c2cccc3nonc23)CC1 [Compound 66, O=C(N1CCN(CC1)S(=O)(=O)c1cccc2nonc12)c1cc2ccccc2[nH]1] | 96

same assay, conditions: Homo sapiens, 15 µM Compound Alone; DU145-TXR; trial 1, sample 3; read-out: % Survival

Structure (SMILES) | viability at 15 µM [%]
O=C(c1cc2ccccc2[nH]1)N1CCN(S(=O)(=O)c2cccc3nonc23)CC1 [Compound 66, O=C(N1CCN(CC1)S(=O)(=O)c1cccc2nonc12)c1cc2ccccc2[nH]1] | 92

same assay, conditions: Homo sapiens, 15 µM Compound Alone; DU145-TXR; trial 1, sample 4; read-out: % Survival

Structure (SMILES) | viability at 15 µM [%]
O=C(c1cc2ccccc2[nH]1)N1CCN(S(=O)(=O)c2cccc3nonc23)CC1 [Compound 66, O=C(N1CCN(CC1)S(=O)(=O)c1cccc2nonc12)c1cc2ccccc2[nH]1] | 90

same assay, conditions: Homo sapiens, 15 µM Compound Alone; DU145-TXR; trial 2, sample 1; read-out: % Survival

Structure (SMILES) | viability at 15 µM [%]
O=C(c1cc2ccccc2[nH]1)N1CCN(S(=O)(=O)c2cccc3nonc23)CC1 [Compound 66, O=C(N1CCN(CC1)S(=O)(=O)c1cccc2nonc12)c1cc2ccccc2[nH]1] | 76

same assay, conditions: Homo sapiens, 15 µM Compound Alone; DU145-TXR; trial 2, sample 2; read-out: % Survival

Structure (SMILES) | viability at 15 µM [%]
O=C(c1cc2ccccc2[nH]1)N1CCN(S(=O)(=O)c2cccc3nonc23)CC1 [Compound 66, O=C(N1CCN(CC1)S(=O)(=O)c1cccc2nonc12)c1cc2ccccc2[nH]1] | 73

same assay, conditions: Homo sapiens, 15 µM Compound Alone; DU145-TXR; trial 2, sample 3; read-out: % Survival

Structure (SMILES) | viability at 15 µM [%]
O=C(c1cc2ccccc2[nH]1)N1CCN(S(=O)(=O)c2cccc3nonc23)CC1 [Compound 66, O=C(N1CCN(CC1)S(=O)(=O)c1cccc2nonc12)c1cc2ccccc2[nH]1] | 78

same assay, conditions: Homo sapiens, 15 µM Compound Alone; DU145-TXR; trial 2, sample 4; read-out: % Survival

Structure (SMILES) | viability at 15 µM [%]
O=C(c1cc2ccccc2[nH]1)N1CCN(S(=O)(=O)c2cccc3nonc23)CC1 [Compound 66, O=C(N1CCN(CC1)S(=O)(=O)c1cccc2nonc12)c1cc2ccccc2[nH]1] | 82
